# Reference: patent US20230190754A1, “Therapeutic combinations for the treatment of Progressive Fibrosing interstitial lung diseases” (Boehringer Ingelheim International GmbH, priority 2021, published 2023)
# Several values for one entry are separate records, joined by “and”; a condition that tells them apart may be missing. Equal values may be shown once.
# Tested on: IPF patients
# Test: Phase II clinical trial in IPF patients: change from baseline in Forced Vital Capacity (FVC) over 12 weeks (MMRM)
# Format: in vivo, human
# Settings: 18 mg b.i.d.
# [1] = AF-group (antifibrotic background), listed as Comp. of Form. III
# [2] = AF-group (antifibrotic background), listed as active agent
# [3] = AF-group, nintedanib background
# [4] = AF-group, pirfenidone background
# [5] = pooled background therapy (Non-AF+AF)
compound,measurement,setting,value
[O-][S@+]1CCc2nc(N3CCC(c4ncc(Cl)cn4)CC3)nc(NC3(CO)CCC3)c21 [Comp. of form. III],Adjusted mean change from baseline in FVC to week 12 (MMRM),[1],2.72 mL
same,Adjusted mean difference vs. Placebo in change from baseline in FVC to week 12 (MMRM),[1],80.4 mL and 80.42 mL
same,Adjusted mean change from baseline in FVC to week 12 (MMRM),[2],+2.72 ml
same,Adjusted mean difference vs. Placebo in change from baseline in FVC to week 12 (MMRM),[2],80.42 mL
same,Adjusted mean change from baseline in FVC to week 12 (MMRM),[3],23.41 mL
same,Adjusted mean difference vs. Placebo in change from baseline in FVC to week 12 (MMRM),[3],105.43 mL
same,Week 12 Mean FVC,[3],2787.37 mL
same,Adjusted mean change from baseline in FVC to week 12 (MMRM),"AF-group, nintedanib background, listed as PDE4-inhibitor of formula III",+23.41 ml
same,Adjusted mean change from baseline in FVC to week 12 (MMRM),[4],-18.76 mL
same,Adjusted mean difference vs. Placebo in change from baseline in FVC to week 12 (MMRM),[4],61.30 mL
same,Week 12 Mean FVC,[4],2879.35 mL
same,Adjusted mean change from baseline in FVC to week 12 (MMRM),"AF-group, pirfenidone background, listed as PDE4-inhibitor of formula III",-18.67 mL
same,Adjusted mean change from baseline in FVC to week 12 (MMRM),Non-AF-group,6.10 mL
same,Adjusted mean difference vs. Placebo in change from baseline in FVC to week 12 (MMRM),Non-AF-group,101.7 mL and 101.72 mL
same,Adjusted mean difference vs. Placebo in change from baseline in FVC to week 12 (MMRM),"Non-AF-group, listed as PDE4-inhibitor of formula III",101.72 mL
same,Adjusted mean difference vs. Placebo in change from baseline in FVC to week 12 (MMRM),"Non-AF-group, listed as active agent",101.72 mL
same,Adjusted mean change from baseline in FVC to week 12 (MMRM),[5],4.59 mL
same,Adjusted mean difference vs. Placebo in change from baseline in FVC to week 12 (MMRM),[5],88.38 mL
same,Adjusted mean change from baseline in FVC to week 12 (MMRM),"pooled background therapy (Non-AF+AF), listed as active agent",-4.59 mL
